Converted amounts (≈) assume the structure as drawn. “And” between values parts separate entries of the source, which are not always exact repeats. Identical values can stand only once. Like-named read-outs stand apart in the source and are kept apart here. Where a SMILES comes first, the peptide text is derived from it. Bridges are numbered along the chain shown (N, C = ends).
What was measured:
[1] = tested on: C. perfringens CVCC 46; test: microbe, parasite or virus in culture; settings: Clostridium perfringens, CVCC46, read-out: MICa (MIC of drug used alone)
[2] = tested on: C. perfringens CVCC 51; test: microbe, parasite or virus in culture; settings: Clostridium perfringens, CVCC51, 18 h
[3] = tested on: C. perfringens JT1; test: microbe, parasite or virus in culture; settings: Clostridium perfringens, JT1, 18 h
[4] = tested on: C. perfringens JC2; test: microbe, parasite or virus in culture; settings: Clostridium perfringens, JC2, 18 h
[5] = tested on: C. perfringens CVCC 1137; test: microbe, parasite or virus in culture; settings: Clostridium perfringens, CVCC1137, 18 h
[6] = tested on: C. perfringens CVCC 46; assay type: cell-based, Clostridium perfringens type A
[7] = tested on: C. perfringens JZ10; test: microbe, parasite or virus in culture; settings: Clostridium perfringens, JZ10, 18 h
[8] = tested on: C. perfringens CVCC 46; settings: for FIC: MIC in combination / MIC alone
[9] = tested on: C. perfringens CVCC 46; test: microbe, parasite or virus in culture; settings: Clostridium perfringens, CVCC46, 18 h
[10] = tested on: C. perfringens type C CVCC 61 cells; settings: cited from earlier work
[11] = tested on: C. perfringens CVCC 46; assay type: cell-based, Clostridium perfringens type A; remark: listed apart in the source
[12] = tested on: C. perfringens CVCC 51; settings: CVCC 51, 18 h
[13] = tested on: C. perfringens JZ10; settings: JZ10, 18 h
[14] = tested on: C. perfringens CVCC 46; assay type: cell-based, Clostridium perfringens type A; remark: listed apart in the source
[15] = tested on: C. perfringens CVCC 1137; settings: CVCC 1137, 18 h
[16] = tested on: C. perfringens CVCC 46 genomic DNA; assay type: binding, Clostridium perfringens type A
[17] = tested on: C. perfringens JC2; settings: JC2, 18 h
[18] = tested on: C. perfringens genomic DNA; assay type: binding, Clostridium perfringens
[19] = tested on: C. perfringens CVCC 46; settings: CVCC 46, 18 h
[20] = tested on: C. perfringens JT1; settings: JT1, 18 h
[21] = CVCC 46, 2×MIC, 1×10^5 CFU/mL, 37°C, colony counts

CN(C)[C@@H]1C(O)=C(C(N)=O)C(=O)[C@@]2(O)C(O)=C3C(=O)c4c(O)ccc(Cl)c4[C@@](C)(O)[C@H]3C[C@@H]12 [Aureomycin]
MIC [1]: 8.36 µM
MIC [2]: 1.04 µM (≈ 0.498 µg/mL)
MIC [3]: 16.7 µM (≈ 8 µg/mL)
MIC [4]: 16.7 µM (≈ 8 µg/mL)
MIC [5]: 0.52 µM (≈ 0.249 µg/mL)
Time to 99.9% reduction of bacterial counts [6, 21]: 2~4 h
Bacterial regrowth in time-kill curve ([6]; CVCC 46, 2×MIC, followed for 10 h): regrowth of C. perfringens strain CVCC 46 was observed
MIC [7]: 16.7 µM (≈ 8 µg/mL)
MICC (MIC of drug used in combination) ([8]; combination Aureomycin-MP1102, CVCC 46): 2.09 µM
FIC ([8]; combination Aureomycin-MP1102): 0.25
MICC (MIC of drug used in combination) ([8]; combination Aureomycin-NZ2114, CVCC 46): 4.18 µM
FIC ([8]; combination Aureomycin-NZ2114): 0.5
MBC [9]: 8.36 µM (≈ 4 µg/mL)
MIC [9]: 4.18 µM (≈ 2 µg/mL)

CCC[C@@H]1C[C@@H](C(=O)N[C@@H]([C@H]2O[C@H](SC)[C@H](O)[C@@H](O)[C@H]2O)[C@@H](C)O)N(C)C1 [Lincomycin]
MIC [1]: 8.68 µM
MIC [2]: 4.3 µM (≈ 1.75 µg/mL)
MIC [3]: 2.2 µM (≈ 0.894 µg/mL)
MIC [4]: > 278 µM
MIC [5]: 2.17 µM (≈ 0.882 µg/mL)
Time to 99.9% reduction of bacterial counts [6, 21]: 2~4 h
MIC [7]: > 278 µM
MICC (MIC of drug used in combination) ([8]; combination Lincomycin-MP1102, CVCC 46): 4.34 µM
FIC ([8]; combination Lincomycin-MP1102): 0.5
MICC (MIC of drug used in combination) ([8]; combination Lincomycin-NZ2114, CVCC 46): 4.34 µM
FIC ([8]; combination Lincomycin-NZ2114): 0.5
MBC [9]: 8.68 µM (≈ 3.53 µg/mL)
MIC [9]: 8.68 µM (≈ 3.53 µg/mL)

CC[C@H](C)[C@@H]1NC(=O)[C@H](CO)NC(=O)[C@H](CCCCN)NC(=O)[C@@H]2CSSC[C@@H](C(=O)N[C@@H](Cc3ccc(O)cc3)C(=O)O)NC(=O)[C@H](CCCCN)NC(=O)[C@@H]3CSSC[C@H](NC(=O)[C@H](CCCCN)NC(=O)[C@H](C(C)C)NC(=O)[C@H](CC(=O)O)NC(=O)[C@H](CC(=O)O)NC(=O)[C@H](CCC(=O)O)NC(=O)[C@H](CCC(N)=O)NC(=O)[C@H](Cc4c[nH]c5ccccc45)NC(=O)[C@@H]4CCCN4C(=O)CNC(=O)[C@H](CC(N)=O)NC(=O)[C@@H](NC(=O)CNC(=O)[C@H](Cc4ccccc4)NC(=O)CN)CSSC[C@H](NC(=O)[C@H](Cc4ccc(O)cc4)NC(=O)CNC(=O)CNC(=O)[C@H](CCCCN)NC(=O)[C@H](Cc4ccc(O)cc4)NC(=O)CNC(=O)[C@H](CCCCN)NC1=O)C(=O)N[C@@H](C)C(=O)N[C@@H](CCCCN)C(=O)NCC(=O)NCC(=O)N[C@@H](Cc1ccccc1)C(=O)N[C@@H](C(C)C)C(=O)N3)C(=O)N[C@@H](Cc1c[nH]cn1)C(=O)N[C@@H](CC(N)=O)C(=O)N[C@@H](Cc1c[nH]cn1)C(=O)N2 [MP1102] (H-GFGCNGPWQEDDVKCHNHCKSIKGYKGGYCAKGGFVCKCY-OH; disulfide 4-30, 15-37, 19-39)
PI-stained percentages of cells [10]: 3.11~5.67%
PI-stained percentages of cells, range over time [11]: 36.5~96.7%
MIC [12]: 0.91 µM (≈ 3.99 µg/mL)
MIC [13]: >14.5 µM
Ratio of cells in phase I [14]: 8.14% and 13.65%
MIC [15]: 1.82 µM (≈ 7.98 µg/mL)
Binding to genomic DNA (gel retardation) [16]: interacted with MDR C. perfringens CVCC 46 genomic DNA
Peptide/DNA mass ratio for complete retardation of DNA migration [16]: > 10.0
MIC [17]: >14.5 µM
Change of CD spectrum of genomic DNA [18]: DNA ellipticity intensity decreased
MBC [19]: 0.91 µM (≈ 3.99 µg/mL)
MIC [19]: 0.91 µM (≈ 3.99 µg/mL)
Bacterial regrowth in time-kill curve [6]: no bacterial regrowth
Time to 99.9% reduction of bacterial counts [6]: ≤ 1 h
MICa (MIC of drug used alone) [8]: 1.82 µM
FICI, range over the tested antibiotics ([8]; CVCC 46): 0.375~1.0
MIC [20]: 0.46 µM (≈ 2.02 µg/mL)

From PMC5608353 (PLoS ONE, 2017)
